# ChEMBL document CHEMBL3351662, “Synthesis, bioassay, and QSAR study of bronchodilatory active 4H-pyrano[3,2-c]pyridine-3-carbonitriles” (Eur J Med Chem, 2015)
# Experiment: Bronchodialatory activity in guinea pig trachea assessed as reduction of histamine-induced contracture
# Type: functional, tissue-based, Cavia porcellus
row,SMILES,IC50
1,CO[C@@]12CCN(C)C[C@H]1[C@H](c1ccc(Cl)cc1)C(C#N)=C(N)O2,10.5 µM
2,CCN1CC[C@@]2(OC)OC(N)=C(C#N)[C@@H](c3ccc(C)cc3)[C@@H]2C1,16.8 µM
3,CCCN1CC[C@@]2(OC)OC(N)=C(C#N)[C@@H](c3ccc4ccccc4c3)[C@@H]2C1,37.1 µM
4,CCN1CC[C@@]2(OC)OC(N)=C(C#N)[C@@H](c3ccc(N4CCCCC4)cc3)[C@@H]2C1,13.8 µM
5,CCN1CC[C@@]2(OC)OC(N)=C(C#N)[C@@H](c3ccc(Cl)cc3)[C@@H]2C1,14.9 µM
6,CO[C@@]12CCN(Cc3ccccc3)C[C@H]1[C@H](c1ccc(Cl)cc1)C(C#N)=C(N)O2,18.5 µM
7,COc1ccc([C@@H]2C(C#N)=C(N)O[C@]3(OC)CCN(Cc4ccccc4)C[C@@H]23)cc1OC,21.9 µM
8,CO[C@@]12CCN(Cc3ccccc3)C[C@H]1[C@H](c1ccc3ccccc3c1)C(C#N)=C(N)O2,23.4 µM
9,COc1ccc([C@@H]2C(C#N)=C(N)O[C@]3(OC)CCN(C)C[C@@H]23)cc1,23.1 µM
10,CO[C@@]12CCN(Cc3ccccc3)C[C@H]1[C@H](c1ccc(F)cc1)C(C#N)=C(N)O2,17.2 µM
11,CCCN1CC[C@@]2(OC)OC(N)=C(C#N)[C@@H](c3ccc(C)cc3)[C@@H]2C1,21 µM
12,CO[C@@]12CCN(C)C[C@H]1[C@H](c1ccc(N3CCOCC3)cc1)C(C#N)=C(N)O2,20.2 µM
13,CCN1CC[C@@]2(OC)OC(N)=C(C#N)[C@@H](c3ccc(OC)cc3)[C@@H]2C1,25.5 µM
14,CCN1CC[C@@]2(OC)OC(N)=C(C#N)[C@@H](c3ccc(-c4cccs4)cc3)[C@@H]2C1,19.8 µM
15,COc1ccc([C@@H]2C(C#N)=C(N)O[C@]3(OC)CCN(Cc4ccccc4)C[C@@H]23)cc1,23.1 µM
16,CO[C@@]12CCN(C)C[C@H]1[C@H](c1ccc(N3CCCCC3)cc1)C(C#N)=C(N)O2,19 µM
17,CCCN1CC[C@@]2(OC)OC(N)=C(C#N)[C@@H](c3ccccc3)[C@@H]2C1,20.7 µM
18,CCCN1CC[C@@]2(OC)OC(N)=C(C#N)[C@@H](c3ccc(F)cc3)[C@@H]2C1,29.6 µM
19,CO[C@@]12CCN(C)C[C@H]1[C@H](c1ccc(Br)cc1)C(C#N)=C(N)O2,7.9 µM
20,CO[C@@]12CCN(C)C[C@H]1[C@H](c1ccc(C)cc1)C(C#N)=C(N)O2,13.2 µM
21,CCCN1CC[C@@]2(OC)OC(N)=C(C#N)[C@@H](c3ccc(OC)c(OC)c3)[C@@H]2C1,24.7 µM

row,SMILES,IC50
1,CO[C@@]12CCN(Cc3ccccc3)C[C@H]1[C@H](c1ccc(C)cc1)C(C#N)=C(N)O2,27.1 µM
2,COc1ccc([C@@H]2C(C#N)=C(N)O[C@]3(OC)CCN(C)C[C@@H]23)cc1OC,19.1 µM
3,CO[C@@]12CCN(Cc3ccccc3)C[C@H]1[C@H](c1ccccc1)C(C#N)=C(N)O2,22.6 µM
4,CO[C@@]12CCN(C)C[C@H]1[C@H](c1ccc(Cl)cc1Cl)C(C#N)=C(N)O2,14.9 µM
5,CO[C@@]12CCN(C)C[C@H]1[C@H](c1ccc(-c3cccs3)cc1)C(C#N)=C(N)O2,13.8 µM
6,CCN1CC[C@@]2(OC)OC(N)=C(C#N)[C@@H](c3ccc(Br)cc3)[C@@H]2C1,13.2 µM
7,Cn1c(=O)c2nc[nH]c2n(C)c1=O [THEOPHYLLINE],19.9 µM
8,CCN1CC[C@@]2(OC)OC(N)=C(C#N)[C@@H](c3ccc(Cl)cc3Cl)[C@@H]2C1,27.1 µM
9,CCCN1CC[C@@]2(OC)OC(N)=C(C#N)[C@@H](c3ccc(OC)cc3)[C@@H]2C1,21.3 µM
10,CO[C@@]12CCN(C)C[C@H]1[C@H](c1ccc3ccccc3c1)C(C#N)=C(N)O2,24.2 µM
11,CCN1CC[C@@]2(OC)OC(N)=C(C#N)[C@@H](c3ccccc3)[C@@H]2C1,23.4 µM
12,CCN1CC[C@@]2(OC)OC(N)=C(C#N)[C@@H](c3ccc(OC)c(OC)c3)[C@@H]2C1,23.2 µM
13,CO[C@@]12CCN(Cc3ccccc3)C[C@H]1[C@H](c1ccc(Cl)cc1Cl)C(C#N)=C(N)O2,18.3 µM
14,CCCN1CC[C@@]2(OC)OC(N)=C(C#N)[C@@H](c3ccc(Cl)cc3Cl)[C@@H]2C1,35.5 µM
15,CCN1CC[C@@]2(OC)OC(N)=C(C#N)[C@@H](c3ccc(N4CCOCC4)cc3)[C@@H]2C1,28.7 µM
16,CCCN1CC[C@@]2(OC)OC(N)=C(C#N)[C@@H](c3ccc(Cl)cc3)[C@@H]2C1,30.3 µM
17,CCN1CC[C@@]2(OC)OC(N)=C(C#N)[C@@H](c3ccc4ccccc4c3)[C@@H]2C1,28.3 µM
18,CO[C@@]12CCN(C)C[C@H]1[C@H](c1ccc(F)cc1)C(C#N)=C(N)O2,19.4 µM
19,CCCN1CC[C@@]2(OC)OC(N)=C(C#N)[C@@H](c3ccc(Br)cc3)[C@@H]2C1,19.4 µM
20,CO[C@@]12CCN(Cc3ccccc3)C[C@H]1[C@H](c1ccc(N3CCOCC3)cc1)C(C#N)=C(N)O2,25.4 µM
21,CO[C@@]12CCN(C)C[C@H]1[C@H](c1ccccc1)C(C#N)=C(N)O2,19.8 µM
